Target: T1, Human complement C1s enzyme (Homo sapiens, UniProt P09871)
T1 sequence (P09871 438-688 limits assumed): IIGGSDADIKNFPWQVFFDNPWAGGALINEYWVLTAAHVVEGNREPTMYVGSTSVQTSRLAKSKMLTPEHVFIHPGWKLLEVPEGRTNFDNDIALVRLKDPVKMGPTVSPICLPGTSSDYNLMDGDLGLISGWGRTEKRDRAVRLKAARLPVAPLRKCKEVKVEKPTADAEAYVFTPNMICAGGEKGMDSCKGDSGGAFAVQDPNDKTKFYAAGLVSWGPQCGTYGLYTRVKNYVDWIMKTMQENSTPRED
T1 sequence (P09871 16-437 partner limits assumed): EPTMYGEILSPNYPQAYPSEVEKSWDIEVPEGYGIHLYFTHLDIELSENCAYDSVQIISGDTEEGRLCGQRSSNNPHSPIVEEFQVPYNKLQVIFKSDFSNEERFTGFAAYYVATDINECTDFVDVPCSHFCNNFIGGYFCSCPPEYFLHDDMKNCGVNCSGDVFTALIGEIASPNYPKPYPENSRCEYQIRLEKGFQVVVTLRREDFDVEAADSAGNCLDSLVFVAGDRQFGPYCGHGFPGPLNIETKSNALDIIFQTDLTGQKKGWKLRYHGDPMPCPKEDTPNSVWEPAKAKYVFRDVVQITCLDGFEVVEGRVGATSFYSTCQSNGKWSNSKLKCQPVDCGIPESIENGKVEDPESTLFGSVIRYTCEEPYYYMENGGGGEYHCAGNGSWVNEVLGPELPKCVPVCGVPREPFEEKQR
Test: Human C1s enzyme assay
Type: biochemical
Conditions: human complement C1s enzyme 1.16 nM, substrate Z-L-Lys-SBzl 100 μM, 5 min preincubation; read-out: IC50 (Stars), C1s Inhibiting Activity
In short: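 Serum-purified human C1s (1.16 nM final) preincubated 5 min at room temperature with compound in 50 mM Tris, 1 M NaCl, pH 7.5. Z-L-Lys-SBzl and DTNB added at 100 μM each; A405 followed every 30 s for 30 min, and IC50 obtained by nonlinear regression of reaction rates.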

| Structure (SMILES) | IC50 [nM] |
| --- | --- |
| O=C(NCC(=O)N1C[C@H](OC(F)F)C[C@H]1C(=O)NCc1ccc2ncoc2c1)c1ccc2c(c1)Oc1ccccc1S2 [Compound 221, (2S,4R)-N-(benzo[d]oxazol-6-ylmethyl)-4-(difluoromethoxy)-1-((phenoxathiine-3-carbonyl)glycyl)pyrrolidine-2-carboxamide] | > 1000 |
| O=C(NCC(=O)N1C[C@H](OC(F)F)C[C@H]1C(=O)NCc1ccc2scnc2c1)c1ccc2c(c1)Oc1ccccc1S2 [Compound 222, (2S,4R)-N-(benzo[d]thiazol-5-ylmethyl)-4-(difluoromethoxy)-1-((phenoxathiine-3-carbonyl)glycyl)pyrrolidine-2-carboxamide] | > 1000 |
| O=C(NCC(=O)N1C[C@H](OC(F)F)C[C@H]1C(=O)NCc1ccc2c(c1)CCNC2)c1ccc2c(c1)Oc1ccccc1S2 [Compound 223, (2S,4R)-4-(difluoromethoxy)-1-((phenoxathiine-3-carbonyl)glycyl)-N-((1,2,3,4-tetrahydroisoquinolin-6-yl)methyl)pyrrolidine-2-carboxamide] | 100 to 1000 |
| O=C(NCC(=O)N1C[C@H](OC(F)F)C[C@H]1C(=O)NCc1ccn2cnnc2c1)c1ccc2c(c1)Oc1ccccc1S2 [Compound 224, (2S,4R)-N-([1,2,4]triazolo[4,3-a]pyridin-7-ylmethyl)-4-(difluoromethoxy)-1-((phenoxathiine-3-carbonyl)glycyl)pyrrolidine-2-carboxamide] | > 1000 |
| O=C(NCC(=O)N1C[C@H](OC(F)F)C[C@H]1C(=O)NCc1ccc2nncn2c1)c1ccc2c(c1)Oc1ccccc1S2 [Compound 225, (2S,4R)-N-([1,2,4]triazolo[4,3-a]pyridin-6-ylmethyl)-4-(difluoromethoxy)-1-((phenoxathiine-3-carbonyl)glycyl)pyrrolidine-2-carboxamide] | > 1000 |
| O=C(NCC(=O)N1C[C@H](OC(F)F)C[C@H]1C(=O)NCc1ccc2c(c1)CNCC2)c1ccc2c(c1)Oc1ccccc1S2 [Compound 226, (2S,4R)-4-(difluoromethoxy)-1-((phenoxathiine-3-carbonyl)glycyl)-N-((1,2,3,4-tetrahydroisoquinolin-7-yl)methyl)pyrrolidine-2-carboxamide] | > 1000 |
| O=C(NCC(=O)N1C[C@H](OC(F)F)C[C@H]1C(=O)NCc1ccc2[nH]ncc2n1)c1ccc2c(c1)Oc1ccccc1S2 [Compound 227, (2S,4R)-N-((1H-pyrazolo[4,3-b]pyridin-5-yl)methyl)-4-(difluoromethoxy)-1-((phenoxathiine-3-carbonyl)glycyl)pyrrolidine-2-carboxamide] | > 1000 |
| O=C(NCC(=O)N1C[C@H](OC(F)F)C[C@H]1C(=O)NCc1ccc2c(c1)CNC2)c1ccc2c(c1)Oc1ccccc1S2 [Compound 228, (2S,4R)-4-(difluoromethoxy)-N-(isoindolin-5-ylmethyl)-1-((phenoxathiine-3-carbonyl)glycyl)pyrrolidine-2-carboxamide] | < 100 |
| O=C(NCC(=O)N1C[C@H](OC(F)F)C[C@H]1C(=O)NCc1ccc2cc[nH]c2n1)c1ccc2c(c1)Oc1ccccc1S2 [Compound 229, (2S,4R)-N-((1H-pyrrolo[2,3-b]pyridin-6-yl)methyl)-4-(difluoromethoxy)-1-((phenoxathiine-3-carbonyl)glycyl)pyrrolidine-2-carboxamide] | > 1000 |
| O=C(NCC(=O)N1C[C@H](OC(F)F)C[C@H]1C(=O)NCc1ccc2[nH]ccc2n1)c1ccc2c(c1)Oc1ccccc1S2 [Compound 230, (2S,4R)-N-((1H-pyrrolo[3,2-b]pyridin-5-yl)methyl)-4-(difluoromethoxy)-1-((phenoxathiine-3-carbonyl)glycyl)pyrrolidine-2-carboxamide] | > 1000 |
| C[C@@H](NC(=O)[C@@H]1C[C@]2(C)C[C@@H]2N1C(=O)CNC(=O)c1ccc2c(c1)Oc1ccccc1S2)c1cc2cnccc2s1 [Compound 231, (1S,3S,5S)-5-methyl-2-((phenoxathiine-3-carbonyl)glycyl)-N-((R)-1-(thieno[3,2-c]pyridin-2-yl)ethyl)-2-azabicyclo[3.1.0]hexane-3-carboxamide] | < 100 |
| Nc1noc2cc(CNC(=O)[C@@H]3C[C@@H](OC(F)F)CN3C(=O)CNC(=O)c3ccc4c(c3)Oc3ccccc3S4)ccc12 [Compound 232, (2S,4R)-N-((3-aminobenzo[d]isoxazol-6-yl)methyl)-4-(difluoromethoxy)-1-((phenoxathiine-3-carbonyl)glycyl)pyrrolidine-2-carboxamide] | > 1000 |
| O=C(NCC(=O)N1C[C@H](OC(F)F)C[C@H]1C(=O)NCc1ccc2nccn2c1)c1ccc2c(c1)Oc1ccccc1S2 [Compound 233, (2S,4R)-4-(difluoromethoxy)-N-(imidazo[1,2-a]pyridin-6-ylmethyl)-1-((phenoxathiine-3-carbonyl)glycyl)pyrrolidine-2-carboxamide] | > 1000 |
| C[C@@H](NC(=O)[C@@H]1CC2(CCCCC2)CN1C(=O)CNC(=O)c1ccc2c(c1)Oc1ccccc1S2)c1cc2cnccc2[nH]1 [Compound 234, (S)-N-((R)-1-(1H-pyrrolo[3,2-c]pyridin-2-yl)ethyl)-2-((phenoxathiine-3-carbonyl)glycyl)-2-azaspiro[4.5]decane-3-carboxamide] | < 100 |
| O=C(NCC(=O)N1C[C@H](OC(F)F)C[C@H]1C(=O)NCc1cc2cnccc2s1)c1cccc(Oc2ccccc2)c1 [Compound 235, (2S,4R)-4-(difluoromethoxy)-1-((3-phenoxybenzoyl)glycyl)-N-(thieno[3,2-c]pyridin-2-ylmethyl)pyrrolidine-2-carboxamide] | < 100 |
| O=C(NCC(=O)N1C[C@H](OC(F)F)C[C@H]1C(=O)NCc1ccc2cnccc2c1)c1ccc2c(c1)Oc1ccccc1S2 [Compound 236, (2S,4R)-4-(difluoromethoxy)-N-(isoquinolin-6-ylmethyl)-1-((phenoxathiine-3-carbonyl)glycyl)pyrrolidine-2-carboxamide] | > 1000 |
| O=C(NCC(=O)N1C[C@H](OC(F)F)C[C@H]1C(=O)NCc1ccn2ccnc2c1)c1ccc2c(c1)Oc1ccccc1S2 [Compound 237, (2S,4R)-4-(difluoromethoxy)-N-(imidazo[1,2-a]pyridin-7-ylmethyl)-1-((phenoxathiine-3-carbonyl)glycyl)pyrrolidine-2-carboxamide] | > 1000 |
| C[C@@H](NC(=O)[C@@H]1C[C@@H](S(C)(=O)=O)CN1C(=O)CNC(=O)c1ccc2c(c1)Oc1ccccc1S2)c1cc2cnccc2[nH]1 [Compound 238, (2S,4R)-N-((R)-1-(1H-pyrrolo[3,2-c]pyridin-2-yl)ethyl)-4-(methylsulfonyl)-1-((phenoxathiine-3-carbonyl)glycyl)pyrrolidine-2-carboxamide] | < 100 |
| O=C(NCC(=O)N1C[C@H](OC(F)F)C[C@H]1C(=O)NCc1cc2cnccc2[nH]1)c1ccccc1Oc1ccccc1 [Compound 239, (2S,4R)-N-((1H-pyrrolo[3,2-c]pyridin-2-yl)methyl)-4-(difluoromethoxy)-1-((2-phenoxybenzoyl)glycyl)pyrrolidine-2-carboxamide] | > 1000 |
| C[C@@H](NC(=O)[C@@H]1CC2(CN1C(=O)CNC(=O)c1cccc(Oc3ccc(F)cc3)c1)OCCO2)c1cc2cnccc2[nH]1 [Compound 240, (S)-N-((R)-1-(1H-pyrrolo[3,2-c]pyridin-2-yl)ethyl)-7-((3-(4-fluorophenoxy)benzoyl)glycyl)-1,4-dioxa-7-azaspiro[4.4]nonane-8-carboxamide] | < 100 |
| C[C@@H](NC(=O)[C@@H]1C[C@@H](OC(F)F)CN1C(=O)CNC(=O)c1cccc(Oc2ccc(F)cc2)c1)c1cc2cnccc2[nH]1 [Compound 241, (2S,4R)-N-((R)-1-(1H-pyrrolo[3,2-c]pyridin-2-yl)ethyl)-4-(difluoromethoxy)-1-((3-(4-fluorophenoxy)benzoyl)glycyl) pyrrolidine-2-carboxamide] | < 100 |
| CC1CCN(C(=O)CNC(=O)c2ccc3c(c2)Oc2ccccc2S3)[C@@H]1C(=O)NCc1cc2cnccc2[nH]1 (stereo partly drawn) [Compound 243, (2S)-N-((1H-pyrrolo[3,2-c]pyridin-2-yl)methyl)-3-methyl-1-((phenoxathiine-3-carbonyl)glycyl)pyrrolidine-2-carboxamide] | > 1000 |
| Cc1ccc(Oc2cc(C(=O)NCC(=O)N3C[C@H](OC(F)F)C[C@H]3C(=O)NCc3cc4cnccc4[nH]3)ccc2C)cc1 [Compound 244, (2S,4R)-N-((1H-pyrrolo[3,2-c]pyridin-2-yl)methyl)-4-(difluoromethoxy)-1-((4-methyl-3-(p-tolyloxy)benzoyl)glycyl) pyrrolidine-2-carboxamide] | < 100 |
| O=C(NCC(=O)N1C[C@H](OC(F)F)C[C@H]1C(=O)NCc1ccc2ncsc2c1)c1ccc2c(c1)Oc1ccccc1S2 [Compound 245, (2S,4R)-N-(benzo[d]thiazol-6-ylmethyl)-4-(difluoromethoxy)-1-((phenoxathiine-3-carbonyl)glycyl)pyrrolidine-2-carboxamide] | > 1000 |

Reference: US20260062443A1 (ALEXION PHARMACEUTICALS, INC., priority 2022, published 2026)
